The record followed here is patent US20060062732A1, “Medicine for detecting lipid components in vivo and vascular endoscope” (Yasumi UCHIDA, priority 2004, published 2006).

The nature of data set [1]: Self-fluorescence of dyes and plaque substances by fluorescent microscopy. Type of data set: physicochemical. Also noted: key to Self-fluorescence colour: B: blue.; G: green.; O: orange.; W: white.; Y: yellow. The following applies: for Self-fluorescence present or not: exciting 360/emitting 420 nm or exciting 470/emitting 515 nm.
In data set [2] the target is T1, ApoB100 (apolipoprotein B100) (Homo sapiens, UniProt P04114).
T1 construct: purchased ICN Biomedicals, Ohio
T1 sequence (P04114 28-4563, species assumed): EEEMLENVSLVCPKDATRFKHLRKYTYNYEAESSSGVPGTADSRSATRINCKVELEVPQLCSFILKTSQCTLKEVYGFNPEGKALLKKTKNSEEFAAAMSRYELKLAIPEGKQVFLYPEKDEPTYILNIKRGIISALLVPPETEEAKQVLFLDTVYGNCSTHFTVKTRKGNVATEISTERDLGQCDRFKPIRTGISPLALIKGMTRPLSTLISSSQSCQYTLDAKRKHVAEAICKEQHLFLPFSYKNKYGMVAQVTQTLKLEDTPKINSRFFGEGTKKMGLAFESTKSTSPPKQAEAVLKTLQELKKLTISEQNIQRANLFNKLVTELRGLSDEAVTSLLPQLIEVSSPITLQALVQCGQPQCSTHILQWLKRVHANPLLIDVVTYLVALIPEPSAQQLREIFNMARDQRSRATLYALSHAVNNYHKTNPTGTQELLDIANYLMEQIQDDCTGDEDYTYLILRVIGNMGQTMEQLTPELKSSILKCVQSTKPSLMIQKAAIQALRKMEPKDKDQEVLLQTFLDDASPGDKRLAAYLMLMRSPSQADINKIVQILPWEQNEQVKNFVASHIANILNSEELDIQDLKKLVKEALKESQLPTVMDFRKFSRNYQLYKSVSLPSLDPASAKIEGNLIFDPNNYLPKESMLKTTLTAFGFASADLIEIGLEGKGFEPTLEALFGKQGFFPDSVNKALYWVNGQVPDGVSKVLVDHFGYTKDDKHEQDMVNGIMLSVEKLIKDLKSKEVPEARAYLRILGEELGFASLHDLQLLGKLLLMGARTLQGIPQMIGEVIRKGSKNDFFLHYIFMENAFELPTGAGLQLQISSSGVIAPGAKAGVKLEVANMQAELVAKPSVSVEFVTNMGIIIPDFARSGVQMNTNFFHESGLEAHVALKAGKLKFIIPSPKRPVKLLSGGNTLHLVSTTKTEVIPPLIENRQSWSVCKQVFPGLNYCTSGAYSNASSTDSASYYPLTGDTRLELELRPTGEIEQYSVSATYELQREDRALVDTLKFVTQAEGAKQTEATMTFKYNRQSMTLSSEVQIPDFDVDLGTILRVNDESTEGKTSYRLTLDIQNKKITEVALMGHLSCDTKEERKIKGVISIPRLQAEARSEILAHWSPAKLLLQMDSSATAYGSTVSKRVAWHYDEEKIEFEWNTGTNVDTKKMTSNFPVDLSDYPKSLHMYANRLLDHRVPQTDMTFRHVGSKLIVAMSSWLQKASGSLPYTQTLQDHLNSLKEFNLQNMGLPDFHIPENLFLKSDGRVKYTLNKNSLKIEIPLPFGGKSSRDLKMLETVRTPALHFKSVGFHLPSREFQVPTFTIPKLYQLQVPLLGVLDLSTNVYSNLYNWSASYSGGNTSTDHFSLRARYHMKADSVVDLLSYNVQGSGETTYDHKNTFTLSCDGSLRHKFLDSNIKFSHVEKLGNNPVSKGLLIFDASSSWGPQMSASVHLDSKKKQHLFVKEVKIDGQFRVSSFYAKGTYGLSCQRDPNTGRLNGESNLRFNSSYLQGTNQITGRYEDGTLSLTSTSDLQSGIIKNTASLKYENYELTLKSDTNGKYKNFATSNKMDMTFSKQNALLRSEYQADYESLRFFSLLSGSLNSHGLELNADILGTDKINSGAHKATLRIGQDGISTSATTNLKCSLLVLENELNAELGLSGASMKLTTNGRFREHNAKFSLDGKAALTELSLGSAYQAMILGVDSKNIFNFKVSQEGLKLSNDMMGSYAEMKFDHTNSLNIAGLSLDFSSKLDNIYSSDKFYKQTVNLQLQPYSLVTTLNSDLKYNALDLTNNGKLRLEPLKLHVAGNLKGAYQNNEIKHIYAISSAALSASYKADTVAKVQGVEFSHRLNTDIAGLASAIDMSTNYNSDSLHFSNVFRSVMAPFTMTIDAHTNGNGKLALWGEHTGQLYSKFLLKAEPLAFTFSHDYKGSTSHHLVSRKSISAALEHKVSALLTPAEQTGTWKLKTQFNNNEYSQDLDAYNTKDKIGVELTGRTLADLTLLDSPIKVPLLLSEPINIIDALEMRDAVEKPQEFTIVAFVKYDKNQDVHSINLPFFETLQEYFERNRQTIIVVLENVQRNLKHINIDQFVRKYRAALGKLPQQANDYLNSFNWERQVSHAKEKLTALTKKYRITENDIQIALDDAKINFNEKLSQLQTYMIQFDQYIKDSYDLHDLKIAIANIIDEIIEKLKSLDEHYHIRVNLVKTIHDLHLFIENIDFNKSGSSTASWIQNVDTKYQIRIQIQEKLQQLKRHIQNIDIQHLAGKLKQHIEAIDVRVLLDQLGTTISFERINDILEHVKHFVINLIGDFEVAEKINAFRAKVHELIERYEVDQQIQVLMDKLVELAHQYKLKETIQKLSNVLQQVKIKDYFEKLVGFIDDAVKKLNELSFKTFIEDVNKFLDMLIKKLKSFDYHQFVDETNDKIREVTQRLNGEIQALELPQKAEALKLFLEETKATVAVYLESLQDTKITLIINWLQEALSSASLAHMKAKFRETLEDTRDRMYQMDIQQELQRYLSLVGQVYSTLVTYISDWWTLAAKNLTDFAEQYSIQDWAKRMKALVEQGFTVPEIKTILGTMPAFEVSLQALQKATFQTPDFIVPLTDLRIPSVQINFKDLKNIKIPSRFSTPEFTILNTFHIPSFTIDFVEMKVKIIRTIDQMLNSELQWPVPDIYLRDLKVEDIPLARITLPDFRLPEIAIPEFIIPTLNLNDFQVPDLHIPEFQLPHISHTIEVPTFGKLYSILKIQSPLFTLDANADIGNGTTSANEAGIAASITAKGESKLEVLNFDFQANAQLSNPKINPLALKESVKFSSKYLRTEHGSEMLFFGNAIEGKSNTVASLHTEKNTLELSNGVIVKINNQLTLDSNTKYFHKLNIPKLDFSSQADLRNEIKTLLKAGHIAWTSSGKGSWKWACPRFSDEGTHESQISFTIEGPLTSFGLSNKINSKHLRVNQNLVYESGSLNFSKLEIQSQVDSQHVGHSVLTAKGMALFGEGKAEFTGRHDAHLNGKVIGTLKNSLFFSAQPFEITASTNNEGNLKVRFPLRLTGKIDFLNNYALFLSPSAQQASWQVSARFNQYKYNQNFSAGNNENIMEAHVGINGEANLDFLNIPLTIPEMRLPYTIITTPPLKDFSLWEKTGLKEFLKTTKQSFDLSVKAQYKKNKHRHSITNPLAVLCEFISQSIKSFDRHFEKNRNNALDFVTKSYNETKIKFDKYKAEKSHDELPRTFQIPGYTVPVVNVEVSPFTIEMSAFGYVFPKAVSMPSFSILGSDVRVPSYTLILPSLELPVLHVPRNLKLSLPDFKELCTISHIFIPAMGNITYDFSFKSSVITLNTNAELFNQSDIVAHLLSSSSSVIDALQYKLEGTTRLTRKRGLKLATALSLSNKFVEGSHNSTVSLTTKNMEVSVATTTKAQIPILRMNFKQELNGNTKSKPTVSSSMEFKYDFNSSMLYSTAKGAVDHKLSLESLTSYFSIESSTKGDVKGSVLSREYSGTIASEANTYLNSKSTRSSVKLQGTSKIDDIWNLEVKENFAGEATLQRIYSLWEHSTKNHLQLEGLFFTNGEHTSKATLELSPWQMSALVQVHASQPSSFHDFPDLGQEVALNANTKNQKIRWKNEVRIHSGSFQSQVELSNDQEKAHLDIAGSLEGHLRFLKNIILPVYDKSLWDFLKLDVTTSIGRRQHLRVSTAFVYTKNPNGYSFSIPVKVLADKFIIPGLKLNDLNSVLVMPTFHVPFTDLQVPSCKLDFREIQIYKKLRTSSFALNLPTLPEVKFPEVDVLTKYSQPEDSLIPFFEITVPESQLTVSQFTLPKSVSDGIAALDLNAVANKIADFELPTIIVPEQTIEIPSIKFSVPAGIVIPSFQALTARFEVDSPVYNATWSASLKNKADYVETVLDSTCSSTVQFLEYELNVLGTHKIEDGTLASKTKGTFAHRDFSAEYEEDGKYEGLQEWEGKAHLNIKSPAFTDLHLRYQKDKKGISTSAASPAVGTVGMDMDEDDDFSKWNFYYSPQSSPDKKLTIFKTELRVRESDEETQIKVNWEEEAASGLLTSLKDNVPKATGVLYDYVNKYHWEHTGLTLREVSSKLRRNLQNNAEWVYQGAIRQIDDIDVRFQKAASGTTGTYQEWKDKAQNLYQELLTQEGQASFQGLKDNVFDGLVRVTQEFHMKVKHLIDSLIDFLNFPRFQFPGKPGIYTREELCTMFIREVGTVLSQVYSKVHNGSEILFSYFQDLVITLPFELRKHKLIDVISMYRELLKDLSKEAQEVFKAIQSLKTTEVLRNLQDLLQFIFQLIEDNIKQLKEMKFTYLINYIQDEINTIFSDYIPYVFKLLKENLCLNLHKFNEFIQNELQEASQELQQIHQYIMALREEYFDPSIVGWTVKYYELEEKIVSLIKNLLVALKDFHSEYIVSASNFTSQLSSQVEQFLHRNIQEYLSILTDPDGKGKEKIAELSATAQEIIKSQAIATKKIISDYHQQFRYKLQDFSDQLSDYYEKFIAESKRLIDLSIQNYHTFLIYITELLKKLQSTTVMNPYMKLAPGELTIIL
Nature of the data set: Dye-evoked fluorescence of ApoB100, fluorescent microscopy. Also noted: key: B: blue.; G: green.; O: orange.; W: white.; Y: yellow.

Data set [3] addresses T1, ApoB100 (apolipoprotein B100). The data set is described as above. The settings on record: ApoB (Table 4). The arrangement: key: RO: reddish orange.
Data set [4] shares this target. The description is as above. The following applies: exciting 360 nm, emitting 420 nm. The arrangement: key: B: blue.; Br: brown.; G: green.; Go: gold.; O: orange.; P: purple.; R: red.; SB: sky blue.; V: violet.; W: white.; Y: yellow.
Setting [5] is: exciting filter 360 nm, emitting filter 420 nm.
The mark [6] stands for this setting: exciting filter 470 nm, emitting filter 515 nm.
The mark [7] stands for this setting: exciting 360 nm, emitting 420 nm.
Setting [8] is: exciting 470 nm, emitting 515 nm.

For the compound `CCCCC/C=C\C/C=C\CCCCCCCC(=O)O[C@H]1CC[C@@]2(C)C(=CC[C@H]3[C@@H]4CC[C@H]([C@H](C)CCCC(C)C)[C@@]4(C)CC[C@@H]32)C1` [Cholesteryl linolate], the “Self-fluorescence present or not” value in data set [1] is listed as “had self-fluorescence”. Besides, the results for the Self-fluorescence colour entry in data set [1] (setting [5]) and in data set [1] (setting [6]) were “W” and “Y”, respectively.
Consider `Cc1cc(-c2ccc(/N=N/c3ccc4c(S(=O)(=O)O)cc(S(=O)(=O)O)c(N)c4c3O)c(C)c2)ccc1/N=N/c1ccc2c(S(=O)(=O)O)cc(S(=O)(=O)O)c(N)c2c1O` [Evans blue], for which, in data set [1], the “Self-fluorescence present or not” value is recorded as “no self-fluorescence”. In addition, the Dye-evoked fluorescence colour entry in data set [2] (setting [7]) and in data set [2] (setting [8]) was “O” throughout.
For the compound `CC[n+]1c(-c2ccccc2)c2cc(N)ccc2c2ccc(N)cc21` [Homidium chloride], in data set [1], the “Self-fluorescence present or not” value is given as “has self-fluorescence”. The values for the Self-fluorescence colour entry in data set [1] (setting [5]) and in data set [1] (setting [6]) were “Y” and “O”, respectively. Moreover, the Dye-evoked fluorescence colour entry in data set [3] (setting [7]) and in data set [3] (setting [8]) was “RO” throughout.
Take `CC1=NN(c2cc(Cl)c(S(=O)(=O)[O-])cc2Cl)C(=O)C1N=Nc1ccc(S(=O)(=O)[O-])cc1.[Na+].[Na+]` (stereo not drawn) [Lissamine fast yellow]: in data set [1], the “Self-fluorescence present or not” value was “no self-fluorescence”.
The same measure, in the same setting: as for `O=S(=O)([O-])c1cccc(N=Nc2ccc(Nc3ccccc3)cc2)c1.[Na+]` [Metanyl yellow], the entry is “no self-fluorescence”.
For `CC[N+](CC)=c1ccc2nc3c(cc(N)c4ccccc43)oc-2c1` [Nile blue], the “Self-fluorescence present or not” value in data set [1] is “no self-fluorescence”. In addition, the Dye-evoked fluorescence colour result in data set [2] (setting [7]) is “O”; in data set [2] (setting [8]) it was “G”.
With `Cc1cc(-c2ccc(/N=N/c3c(S(=O)(=O)[O-])cc4cc(S(=O)(=O)[O-])cc(N)c4c3O)c(C)c2)ccc1/N=N/c1c(S(=O)(=O)[O-])cc2cc(S(=O)(=O)[O-])cc(N)c2c1O.[Na+].[Na+].[Na+].[Na+]` [Tripan blue], in data set [1], the “Self-fluorescence present or not” value was “no self-fluorescence”. For the same compound, the figures for the Dye-evoked fluorescence colour entry in data set [2] (setting [8]) and in data set [4] were “O” and “P”, respectively.
For the compound `CC1=C(/C=C/C(C)=C/C=C/C(C)=C/C=C/C=C(C)/C=C/C=C(C)/C=C/C2=C(C)CCCC2(C)C)C(C)(C)CCC1` [beta-Carotene], in data set [1], the “Self-fluorescence present or not” value is listed as “had self-fluorescence”. The Self-fluorescence colour entry in data set [1] (setting [5]) and in data set [1] (setting [6]) was “O” in each case.
As to `CC(C)CCC[C@@H](C)[C@H]1CC[C@H]2[C@@H]3CC=C4C[C@@H](O)CC[C@]4(C)[C@H]3CC[C@]12C` [free Cholesterol], in data set [1], the “Self-fluorescence present or not” value is “had self-fluorescence”. Further, the Self-fluorescence colour result is on record as “W” in data set [1] (setting [5]) and “Y” in data set [1] (setting [6]).
Consider phosphatidylcholine [PC], for which the “Self-fluorescence present or not” value in data set [1] is “had self-fluorescence”. In data set [1] (setting [5]), the Self-fluorescence colour result was “W”.
